From patent publication EP0283369B1, “Use of Metformin in the preparation of medicaments” (LIPHA, LYONNAISE INDUSTRIELLE PHARMACEUTIQUE, priority 1987, dated 1988)

Legend:
[1] = tested on: cellules endothéliales humaines; assay: Proliferation of human endothelial cells cultured in hypoxia
Text: (§1) • la néovascularisation est le résultat d'une prolifération anormale de cellules endothéliales en particulier dans un environnement hypoxique. • * Cette situation peut être reproduite in vitro en étudiant une telle prolifération sur une culture de cellules endothéliales humaines placées en hypoxie. […] Tout d'abord dans le modèle classique de néovascularisation de la cornée du lapin (M.A. Gimbrone Jr, R.S. Cotran, S.B. Leafman et A.J. Folkman, J. Natl Cancer Inst. 52).

[2] = tested on: endothélium en culture sur sa matrice extracellulaire; assay: Penetration of cancer cells through cultured endothelium on its extracellular matrix; format: cell-based; details: 10⁻⁴ - 10⁻⁵ M; in vitro
[3] = tested on: néovascularisation de la cornée du lapin; assay: Rabbit cornea neovascularisation model; format: in vivo; details: administration in situ
Text: as §1

métastases pulmonaires = assay: Pulmonary metastasis model in the mouse; format: in vivo; details: 25 et 12,5 mg par voie orale; souris
[4] = tested on: formation de néovaisseaux; assay: Neovascularisation after irreversible venous occlusion by argon laser photocoagulation in the miniature pig; format: in vivo, porc miniature; details: voie orale, dose journalière de 100 mg, pendant 4 semaines; 6 porcs miniatures
Text: Pournaras, […] Mbl. Augenheilk. 186 (1985) 471-476). Les expériences ont été partiquées chez le porc miniature. Une occlusion veineuse irréversible a été obtenue par photocoagulation au moyen du laser à Argon. L'angiographie fluorescéinique permet de visualiser 4 semaines après l'occlusion, dans les zones où les vaisseaux de suppléance sont insuffisants en nombre pour assurer la fonction de drainage, […]éovascularisation.

artérioles terminales = assay: Skin window in the awake hamster: spontaneous microvascular vasomotion; format: in vivo; details: 2 mg/100 g par voie intraveineuse; hamster éveillé; controls: une par minute
Text: La fenêtre est éclairée par transmission, on observe le lit capillaire au microscope trioculaire. L'image est transformée en vidéosignal par une caméra. L'enregistrement du diamètre des microvaisseaux est réalisé en continu.
Le produit à étudier est administré par voie intra-veineuse.

[5] = tested on: modèle d'ischémie périphérique chez le rat; assay: Peripheral ischaemia model: microspheres injected into the femoral artery; format: in vivo; details: voie intra péritonéale 20 mg/kg
Text: Dans un modèle d'ischémie périphérique chez le rat, l'injection de microsphères dans l'artère fémorale, provoque l'apparition d'un oedème de la patte ainsi qu'une baisse des capacités motrices de l'animal.

[6] = tested on: cellules musculaires lisses précapillaires; assay: Hamster cheek pouch microcirculation under pentobarbital anaesthesia; format: in vivo; details: 1-2 mg/100 g par voie intraveineuse; animal anesthésié au pentobarbital (contractions abolished)

## CN(C)C(=N)NC(=N)N [Metformine, N,N-diméthylimidodicarbonimidicdiamide]
[1]; concentrations de l'ordre de 10⁻⁷ à 10⁻¹² M, hypoxie
  prolifération de cellules endothéliales humaines en hypoxie: inhibe fortement cette prolifération
[1]; cultures de cellules endothéliales humaines
  cytotoxicité sur ces cultures cellulaires: ne présente pas de cytotoxicité
[2]
  pénétration de cellules cancéreuses à travers l'endothélium: inhibe la pénétration de cellules cancéreuses à travers l'endothélium
[3]
  apparition des néovaisseaux: inhibe l'apparition des néovaisseaux
métastases pulmonaires
  baisse du nombre de métastases: 50%
[4]
  apparition d'une néovascularisation: suppression complète de l'apparition d'une néovascularisation
artérioles terminales
  fréquence de contractions et dilatations des artérioles terminales: 10 par minute
[5]
  motricité (capacités motrices de l'animal): récupération totale de la motricité
  réduction de l'oedème de la patte: 60%
[6]
  contractions et relaxations rythmiques des cellules musculaires lisses précapillaires: réapparition des contractions et relaxations rythmiques des cellules musculaires lisses précapillaires
